Peptide text beside a SMILES is read from it. * marks the point of attachment. Cbz = O=C(OCc1ccccc1)*; CH2F = FC*
Tested on: melanoma cultures (A2058, MeWo, SM, A375)
Assay: Virus growth by plaque assay (burst size) in melanoma cultures
Format: cell-based, human
Conditions: delta-PK infected melanoma cultures
Protocol: FIG. 3. Delta-PK is a growth-restricted replication competent oncolytic virus. A. Vero cells were infected with HSV-2, delta-PK, or HSV-2(R) (moi=0.5) in serum-free medium and virus titers were determined by plaque assay. Results are expressed as mean pfu/cell (burst size). B. A2058, MeWo, SM, A375 and Wi-38 cells were infected with delta PK and examined for virus growth. […] C. Delta-PK infected A2058 and WI-38, cells were stained with Alexafluor-488 labeled ICP10 and Alexafluor-594 labeled VP5 antibodies in double immunofluorescence. Cells were counted in 3 randomly selected fields (≧250 cells) and the % staining cells calculated relative to total cells identified by DAPI staining. Quantitative results are shown for A2058 cell at 4-72 hrs p.i., and for WI-38 cells at 48 hrs p.i. Similar results were obtained for the partially purified virus.
To measure virus replication in culture, cells were infected at a multiplicity of infection (moi) of 0.5 pfu/cell. Adsorption was for 1 hr at 4 degrees C. (synchronized infection). […] Virus titers were determined by plaque assay on Vero cells and the results are expressed as mean pfu/cell (burst size), as described (Li B, Smith C C, Laing J M, Gober M D, Liu L, Aurelian L. Overload of the heat-shock protein H11/HspB8 triggers melanoma cell apoptosis through activation of transforming growth factor-beta-activated kinase 1. Oncogene 2007; 26: 3521-3531). […]

Structure (SMILES)	effect of inhibitor on virus growth
O=C(O)/C(S)=C/c1ccc(I)cc1 [PD150606]	neither PD150606, nor z-VAD-fmk had any effect
COC(=O)C[C@H](NC(=O)[C@H](C)NC(=O)[C@@H](NC(=O)OCc1ccccc1)C(C)C)C(=O)CF [z-VAD-fmk, benzyloxcarbonyl-Val-Ala-Asp-fluormethyl ketone] (Cbz-Val-Ala-Asp(OMe)-CH2F)	neither PD150606, nor z-VAD-fmk had any effect

Source: patent US8414885B2, “Methods and compositions for treating cancer” (priority 2009, dated 2013)
